Here are results for nine molecules from article PMC3865801 (Journal of Medicinal Chemistry, 2013).

Read-outs that look alike come from different tables or passages of the source.

The target in series [1] is T1, purified recombinant perforin (Mus musculus, UniProt P10820).
T1 sequence (P10820 21-554): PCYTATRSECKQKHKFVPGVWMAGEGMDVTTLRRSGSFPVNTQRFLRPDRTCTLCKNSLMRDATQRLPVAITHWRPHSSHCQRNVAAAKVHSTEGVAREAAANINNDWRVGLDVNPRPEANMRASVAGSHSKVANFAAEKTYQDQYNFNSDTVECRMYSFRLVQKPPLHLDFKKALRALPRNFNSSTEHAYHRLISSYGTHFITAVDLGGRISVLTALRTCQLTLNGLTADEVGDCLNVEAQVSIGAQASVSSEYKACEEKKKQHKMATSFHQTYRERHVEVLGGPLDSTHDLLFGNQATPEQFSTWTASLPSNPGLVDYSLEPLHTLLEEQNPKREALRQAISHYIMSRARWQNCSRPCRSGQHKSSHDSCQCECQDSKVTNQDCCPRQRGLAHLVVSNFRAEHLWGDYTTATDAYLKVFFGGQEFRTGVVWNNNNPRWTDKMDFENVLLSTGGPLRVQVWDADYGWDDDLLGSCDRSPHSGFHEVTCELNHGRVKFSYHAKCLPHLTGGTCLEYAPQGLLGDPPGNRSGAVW
As to the kind of experiment: cell-based. It counts as cell-based. To be noted: lysis of Jurkat cells by purified recombinant perforin, 51Cr release, 0.1% BSA; average of at least three determinations; read-out: inhibition of Jurkat cell lysis, IC50.
Method: The ability of the compounds to inhibit the lysis of nucleated (Jurkat T lymphoma) cells in the presence of 0.1% BSA was measured by release of ^51Cr label. Jurkat target cells were labeled by incubation in medium with 100 μCi ^51Cr for 1 h. The cells were then washed three times to remove unincorporated isotope and resuspended at 1 × 10^5 cells per milliliter in RPMI buffer supplemented with 0.1% BSA. […] Each data point was performed in triplicate, and an IC50 was calculated from the range of concentrations described above.

Series [2] addresses T2, perforin produced by an intact NK cell line (KHYG-1) (Homo sapiens, UniProt P14222).
T2 construct: the perforin is delivered by a functional NK cell; endogenous in cells; host or cells: KHYG-1 NK cells (K562 target cells)
T2 sequence (P14222 22-555): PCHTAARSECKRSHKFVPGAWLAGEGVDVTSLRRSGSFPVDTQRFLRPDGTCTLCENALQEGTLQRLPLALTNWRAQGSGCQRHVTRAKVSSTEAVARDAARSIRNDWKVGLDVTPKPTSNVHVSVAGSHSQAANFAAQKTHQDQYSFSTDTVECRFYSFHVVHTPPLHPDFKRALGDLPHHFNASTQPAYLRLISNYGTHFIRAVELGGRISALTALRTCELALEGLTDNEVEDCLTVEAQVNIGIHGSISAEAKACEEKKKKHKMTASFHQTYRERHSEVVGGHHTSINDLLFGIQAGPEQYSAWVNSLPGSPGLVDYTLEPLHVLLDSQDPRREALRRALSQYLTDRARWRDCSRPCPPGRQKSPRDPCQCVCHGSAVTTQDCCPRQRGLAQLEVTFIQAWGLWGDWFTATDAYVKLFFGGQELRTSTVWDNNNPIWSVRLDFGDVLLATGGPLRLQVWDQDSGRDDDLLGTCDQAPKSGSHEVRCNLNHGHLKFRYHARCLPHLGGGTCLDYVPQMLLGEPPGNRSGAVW
As to the kind of experiment: KHYG-1 cytotoxicity assay: perforin-induced lysis of K562 target cells co-incubated with KHYG-1 NK cells. It counts as cell-based. Particulars: 20 μM, K562 targets, ± SEM. The procedure:
KHYG-1 cells were washed and resuspended in RPMI + 0.1% BSA at 4 × 10^5 cells/mL, and an amount of 50 μL of KHYG-1 cells was dispensed to each well of a 96-well V-bottom plate. RPMI (50 μL) + 0.1% BSA or 10% (final concentration) of serum was added to each well. Then test compounds were added to KHYG-1 cells at various concentrations up to 20 μM and incubated at room temperature for 20 min. 1 × 10^6 K562 target cells were labeled with 75 μCi ^51Cr in 200 μL of RPMI for 90 min at 37 °C. Cells were washed as described above and resuspended in 5 mL of RPMI + 0.1% BSA. […] The percentage of specific cytotoxicity was calculated using the following formula: [drawing 4] and expressed as the mean of triplicate assays ± standard error of the mean.

Series [3] is described as follows: Toxicity to KHYG-1 NK cells (Trypan blue exclusion). It counts as cell-based, human. Particulars: human, KHYG-1 NK cells; 20 μM, 4 h exposure, viability after 24 h, Trypan blue, ± SEM. The procedure: The toxicity assay was carried out in exactly the same manner as the killing assay above, but instead of adding the labeled K562 target cells, 100 μL of RPMI 0.1% BSA was added. Cells were incubated for 4 h at 37 °C and then washed ×3 in RPMI + 0.1% BSA. […] Trypan blue was added to each well. Viable (clear) cells and total (clear + blue) cells were counted, and the percentage of viable cells was calculated compared to DMSO treated cell control (% viability).

Series [4] in a line: Aqueous solubility of parent compound and sodium salt. To be noted: aqueous medium (not further specified).
Setting [5] is: 10% mouse serum, read-out: KHYG-1 inhibition (% at 20 μM), 10% serum.
Where [6] appears, read: no serum, vs untreated control, read-out: KHYG-1 inhibition (% at 20 μM), no serum.

Regarding `O=C1NC(=S)N/C1=C/c1ccc(-c2ccc3c(c2)COC3=O)s1` [compound 4], the 50% inhibitory concentration (IC50) (commonly the concentration that gives 50% inhibition) in series [1] is 780 nM. The results for the inhibition at 20 µM in series [2] (setting [5]) and in series [2] (setting [6]) were 38.9 ± 3.5% and 53 ± 2.6%, respectively. In addition, in series [3], the viability – broadly, a read-out of living cells in per cent, often relative to untreated cells – at 4 h, 20 µM amounted to 88 ± 3%. The solubility (as a rule, how much of the substance goes into solution per volume) in series [4] is 23 µg/mL.

Consider `O=C1NC(=S)N/C1=C/c1ccc(-c2ccc3c(c2)CNC3=O)s1` [compound 118], for which the IC50 in series [1] came to 2550 nM. Also, the inhibition (in general, the relative decrease from the control value, in per cent) at 20 µM was determined as 55 ± 6.5% in series [2] (setting [5]) and 56 ± 7.2% in series [2] (setting [6]). For the same molecule, in series [3], the viability at 4 h, 20 µM was determined as 95 ± 3.5%. In addition, the solubility in series [4] was 0.54 µg/mL.

For `CN1Cc2cc(-c3ccc(/C=C4/NC(=S)NC4=O)s3)ccc2C1=O` [compound 119, (E,Z)-2-Methyl-5-(5-((5-oxo-2-thioxoimidazolidin-4-ylidene)methyl)thiophen-2-yl)isoindolin-1-one], the inhibition at 20 µM was determined as 37 ± 2.4% in series [2] (setting [5]) and 42 ± 5.5% in series [2] (setting [6]). Further, in series [3], the viability at 4 h, 20 µM was 28 ± 1.5%. Further, the solubility in series [4] was found to be 0.13 µg/mL.

As to `O=C1NC(=S)N/C1=C/c1ccc(-c2ccc3c(c2)CN(CCO)C3=O)s1` [compound 125, (E,Z)-2-(2-Hydroxyethyl)-5-(5-((5-oxo-2-thioxoimidazolidin-4-ylidene)methyl)thiophen-2-yl)isoindolin-1-one], in series [1], the concentration for half-maximal inhibition (IC50) worked out at 780 nM. The inhibition at 20 µM in series [2] (setting [5]) is 24 ± 3.4%; in series [2] (setting [6]), 43 ± 5.8%. In addition, in series [3], the viability at 4 h, 20 µM amounted to 81 ± 0.5%. For the same molecule, the solubility in series [4] worked out at 43 µg/mL.

As for `O=C1NC(=S)N/C1=C/c1ccc(-c2ccc3c(c2)CN(CCCO)C3=O)s1` [compound 126], in series [1], the IC50 amounted to 530 nM. The inhibition at 20 µM turned out to be 17 ± 3% in series [2] (setting [5]) and 48 ± 7.9% in series [2] (setting [6]). The molecule also gave a viability at 4 h, 20 µM in series [3] of 90 ± 3%. Besides, in series [4], the solubility came out at 1.78 µg/mL.

As for `CCOC(=O)N1Cc2cc(-c3ccc(/C=C4/NC(=S)NC4=O)s3)ccc2C1=O` [compound 129], the IC50 in series [1] amounted to 550 nM. Moreover, the inhibition at 20 µM in series [2] (setting [5]) turned out to be 35 ± 9.5%; in series [2] (setting [6]), 46 ± 5.9%. For the same molecule, the viability at 4 h, 20 µM in series [3] came to 93 ± 4.1%. Besides, the solubility in series [4] was 0.18 µg/mL.

As to `O=C1NC(=O)/C(=C\c2ccc(-c3ccc4c(c3)CNC4=O)s2)N1` [compound 136], the IC50 in series [1] is 400 nM. Also, the values for the inhibition at 20 µM in series [2] (setting [5]) and in series [2] (setting [6]) were 50 ± 7.1% and 49 ± 9.8%, respectively. The molecule further showed a viability at 4 h, 20 µM in series [3] of 93 ± 3%. For the same molecule, the solubility in series [4] came out at 11.6 µg/mL.

As to `O=C1NC(=S)N/C1=C/c1ccc(-c2ccc3c(c2)C(=O)NCC3)s1` [compound 168], in series [1], the half-maximal inhibitory concentration (IC50) was 640 nM. Besides, the inhibition at 20 µM in series [2] (setting [5]) is 23 ± 7.1%; in series [2] (setting [6]), 51 ± 4%. This molecule also had a viability at 4 h, 20 µM in series [3] of 87 ± 4.1%. Further, the solubility in series [4] was determined as 0.13 µg/mL.

On to `O=C1NC(=S)N/C1=C/c1ccc(-c2ccc3c(c2)CNC3=O)cn1` [compound 207], for which the IC50 in series [1] came out at 630 nM. The inhibition at 20 µM in series [2] (setting [5]) turned out to be 13 ± 3.8%; in series [2] (setting [6]) it was 43 ± 5.4%. Further, the viability at 4 h, 20 µM in series [3] is 92 ± 2.6%. Further, the solubility in series [4] came to 0.59 µg/mL.
